Reference: PMC8306634, “Antimicrobial and Antioxidative Activity of Newly Synthesized Peptides Absorbed into Bacterial Cellulose Carrier against Acne vulgaris” (International Journal of Molecular Sciences, 2021)
Values after ≈ are worked out from the molar mass of the structure shown. Where a SMILES comes first, the peptide text is derived from it. Side-chain parts run from the residue outwards. The star is where a group is joined. Lauroyl = CCCCCCCCCCCC(=O)*

Assays:
S. aureus 6538 [1] = conditions: for antimicrobial activity against planktonic S. aureus (in words): Figure 4, highest tested 250 mg/L; for MBC: 6538, 24 h; for concentration at which reduction of staphylococcal cell number was observed: planktonic S. aureus, Figure 4
Procedure: For experimental purposes, the American type culture collection’s strains of S. aureus 6538 and C. acnes 6919 were applied.
The following standard procedure of MBC evaluation according to CLSI (Methods for Determining Bactericidal Activity of Antimicrobial Agents; Approved Guideline, document M26A, Global Laboratory Standards for a Healthier World, https://clsi.org, accessed on 15 December 2020) was performed. The 96-well plates with bacteria and peptide concentrations were performed and incubated as it was described in Section 2 of Material and Methods. Then the M-H agar plates with spots containing staphylococcal culture were incubated at 37 °C for 24 h. Lack of colony presence in the spot after incubation was considered as lack of microorganism growth, while presence of microbial colony in the spot was considered presence of microorganism growth. All experiments were performed in triplicate.

S. aureus 6538 [2] = assay: Minimal inhibitory concentration against planktonic Staphylococcus aureus; format: cell-based; conditions: M-H broth, 24 h/37 °C, tested 0.48-250 mg/L, turbidity 580 nm, triplicate
Procedure: A loop of staphylococcal culture grown on Columbia agar plate (BioMaxima, Poland) was transferred to liquid tryptone soya broth (TSB, BTL) and incubated at 37 °C for 24 h. Next, culture’s optical density of 1 McFarland (3 × 10^8 cfu/mL) was established using a densitometer (Biomerieux, Poland). Subsequently, the suspension was diluted in the Miller-Hinton Broth (M-H, BioMaxima, Poland) to reach the density of 1 × 10^5 cells/mL. Afterwards, serial dilutions of each peptide was performed in M-H Broth in 96-well plate (BioStar, Germany). Next 100 μL of previously-prepared microbial suspension was added to each well. The highest concentration of each peptide tested in this experimental setting was thus 250 mg/L and it dropped twice in each subsequent well of 96-well plate up to 0.48 mg/L. Plates were incubated for 24 h/37 °C in shaker (Lab Companion, JeioTech, Daejeon, Korea). After incubation, the turbidity of bacterial culture was measured using Thermo Scientific Multiskan Go spectrometer (Thermo-Fischer Scientific, Vantaa, Finland) with wavelength of 580 nm. The microbial culture where no peptide was added served as growth control. The sterility control setting was M-H broth with no microorganism added. The tetrazolium salt (TTC) test served as additional analysis of microbial cell number reduction. All experiments were performed in triplicate.

S. aureus = conditions: 24 h
C. acnes = conditions: 24 h
S. aureus biofilm = assay: Activity against Staphylococcus aureus biofilm (MBEC, TTC); format: cell-based; conditions: for reduction of staphylococcal biofilm: 24 h, TTC read-out 490 nm, ANOVA with Tukey's test p < 0.05
Procedure: A total of 100µL of S. aureus suspension (10^5 cfu/mL) in TSB) medium was introduced to wells of 96-well plate and incubated at 37 °C/24 h without shaking. Next, whole medium was removed, leaving biofilm-forming organisms attached to the bottom of a 96-well plate. Subsequently, geometric dilutions of peptides in TSB (62.5–250 mg/L) were applied to the wells and left for another 24 h at 37 °C. The culture with no added peptide served as a positive control for microorganism growth, while the well containing the sterile TSB only served as a sterility control for the experiment. After incubation, 5 µL of triphenyl tetrazolium chloride (TTC, Sigma Aldrich, Taufkirchern, Germany) was added to each well and incubated for 5 h at 37 °C. A change of colorless TTC to red formazan confirmed the presence of metabolically active microorganisms. Next, the formazan was dissolved in methanol and its concentration was measured using a Thermo Scientific Multiskan Go spectrometer with a wavelength of 490 nm. In parallel, biofilms in plate wells were agitated using an automated pipette, removed from 96-well plates, and spotted on a stable (M-H) agar plate (Biomaxima, Lublin, Poland) where they were incubated for 48 h. The presence of living colonies on agar indicated the lack of MBEC, while the absence of colonies in the place where spotting was performed confirmed that the particular concentration of peptide can be considered the MBEC.

[3] = DPPH radical scavenging activity; conditions: 25 °C, absorbance at 522 nm, triplicate
Procedure: The DPPH spectrometric method described by Brand, Williams et al. was applied due to its efficiency on lipophilic and hydrophilic samples [60]. The evaluation of free radical scavenging capacity (FRSC) was based on DPPH (Merck, Darmstadt, Germany) absorbance intensity resulting from its reaction with surfactants. A PG Instruments UV–Vis T60 spectrophotometer (Alab, Warszawa, Poland), interfaced with a computer with a quartz cuvette and of path length 1.0 cm at 25 °C, using a total volume of 3.0 mL, was applied in the range 190–900 nm. As a sample (As) 1.0 mL of P1–P6 aqueous solution (2 mg/mL) and 2.0 mL of ethanolic DPPH solution (5.9·10–2 mg/mL) were mixed and evaluated. As a blank (Ab), 1.0 mL of water, mixed with 2.0 mL of ethanol, was used. Absorbance decrease at 522 nm was measured in 2 min intervals for 6 h. FRSC was calculated as a percentage with the following equation: FRSC (%) = [(Ab – As)/Ab] × 100%. All measurements were performed in triplicate.

Molecule: (WK)2-KWK-NH2 [Peptide P1]
- antimicrobial activity against planktonic S. aureus (in words) (S. aureus 6538 [1]): lack of antimicrobial activity
- MIC (S. aureus 6538 [2]): not observed

Molecule: NCCCC[C@H](NC(=O)[C@H](Cc1c[nH]c2ccccc12)NC(=O)[C@H](CCCCN)NC(=O)[C@H](Cc1c[nH]c2ccccc12)NC(=O)[C@H](CCCCNC(=O)[C@H](CCCCN)NC(=O)[C@H](Cc1c[nH]c2ccccc12)NC(=O)[C@H](CCCCN)NC(=O)[C@@H](N)Cc1c[nH]c2ccccc12)NC(=O)[C@H](CCCCN)NC(=O)[C@H](Cc1c[nH]c2ccccc12)NC(=O)[C@H](CCCCN)NC(=O)[C@@H](N)Cc1c[nH]c2ccccc12)C(N)=O [Peptide P2, (WKWK)2-KWKWK-NH2] (H-WKWKK([Lys-Trp-Lys-Trp])WKWK-NH2)
- Inhibition Zone (S. aureus): 0 mm
- Inhibition Zone (C. acnes): 1.6 ± 0.9 mm
- MBEC (S. aureus biofilm; 24 h S. aureus biofilm in TSB, peptides 62.5–250 mg/L for 24 h at 37 °C, spotting on M-H agar): not achieved
- reduction of staphylococcal biofilm (S. aureus biofilm; exposure to 125 mg/L): significant reduction
- reduction of staphylococcal biofilm (S. aureus biofilm; exposure to 250 mg/L): significant reduction

Molecule: NCCCC[C@H](NC(=O)[C@H](Cc1c[nH]c2ccccc12)NC(=O)[C@@H](N)CCCCN)C(=O)NCCCC[C@H](NC(=O)[C@H](CCCCN)NC(=O)[C@H](Cc1c[nH]c2ccccc12)NC(=O)[C@@H](N)CCCCN)C(=O)N[C@@H](Cc1c[nH]c2ccccc12)C(=O)N[C@@H](Cc1c[nH]c2ccccc12)C(=O)N[C@@H](Cc1c[nH]c2ccccc12)C(N)=O [Peptide P5, (KWK)2-KWWW-NH2] (H-KWKK([Lys-Trp-Lys])WWW-NH2; N-terminus assumed)
- Inhibition Zone (S. aureus): 1 mm
- MBC (S. aureus 6538 [1]): 250 µg/mL (≈ 157 µM)
- concentration at which reduction of staphylococcal cell number was observed (S. aureus 6538 [1]): 125 mg/L
- Inhibition Zone (C. acnes): 2 mm
- reduction of staphylococcal biofilm (S. aureus biofilm; exposure to 250 mg/L): significant reduction
- time required for the extinction of fifty percent of the DPPH ([3]; peptide 2 mg/mL aqueous (1.0 mL) + 2.0 mL ethanolic DPPH 5.9·10–2 mg/mL): 124 min

Molecule: (WR)2-KWR-NH2 [Peptide P3]
- antimicrobial activity against planktonic S. aureus (in words) (S. aureus 6538 [1]): recordable antimicrobial activity, however only in the highest concentrations of 250 mg/L

Molecule: CCCCCCCCCCCC(=O)NCCCC[C@H](NC(=O)CCCCCCCCCCC)C(=O)N[C@@H](CCCCN)C(=O)N[C@@H](CCCCN)C(=O)N[C@@H](CCCCN)C(N)=O [Peptide P4, (C12)2-KKKK-NH2] (Lauroyl-K(Lauroyl)KKK-NH2)
- Inhibition Zone (S. aureus): 0 mm
- antimicrobial activity against planktonic S. aureus (in words) (S. aureus 6538 [1]): highest anti-staphylococcal activity
- concentration at which reduction of staphylococcal cell number was observed (S. aureus 6538 [1]): 62.5 mg/L
- Inhibition Zone (C. acnes): 0 mm
- reduction of staphylococcal biofilm (S. aureus biofilm; exposure to 125 mg/L): significant reduction
- reduction of staphylococcal biofilm (S. aureus biofilm; exposure to 250 mg/L): significant reduction
- DPPH radicals inhibited over six hours ([3]; peptide 2 mg/mL, six hours): < 20%

Molecule: NCCCC[C@H](NC(=O)[C@@H](N)CCCCN)C(=O)NCCCC[C@H](NC(=O)[C@H](CCCCN)NC(=O)[C@@H](N)CCCCN)C(=O)N[C@@H](Cc1c[nH]c2ccccc12)C(=O)N[C@@H](Cc1c[nH]c2ccccc12)C(=O)N[C@@H](Cc1c[nH]c2ccccc12)C(N)=O [Peptide P6, (KK)2-KWWW-NH2] (H-KKK([Lys-Lys])WWW-NH2; N-terminus assumed)
- Inhibition Zone (S. aureus): 0 mm
- MBC (S. aureus 6538 [1]): 250 µg/mL (≈ 205 µM)
- concentration at which reduction of staphylococcal cell number was observed (S. aureus 6538 [1]): 125 mg/L
- Inhibition Zone (C. acnes): 0 mm
- reduction of staphylococcal biofilm (S. aureus biofilm; exposure to 125 mg/L): significant reduction
- reduction of staphylococcal biofilm (S. aureus biofilm; exposure to 250 mg/L): significant reduction
